Assay results taken from patent publication US5521160A, “Sulfuric acid esters of sugar alcohols” (Hoffmann-La Roche Inc., priority 1994, dated 1996).
Counter-ions that a name gives are not always drawn. Like-named read-outs stand apart in the source and are kept apart here.

What was measured:
rat smooth muscle cells = assay: Antiproliferative activity (growth inhibition of rat smooth muscle cells, relative to heparin); format: cell-based; details: 100 μg/ml, 48 hours, relative to heparin 100 μg/ml in same experiment
Method: The antiproliferative activity of a substance is expressed as the ri value which is a comparative value to the corresponding activity of heparin and which was determined in cell cultures as follows: rat smooth muscle cells were applied to cell culture plates in a density of 8×10^3 cells/well (medium: DMEM with 10% FCS. Cultivation at 37° C. and 5% CO2). After 4 hours the number of adhered cells was determined and the compounds to be tested (100 μg/ml, dissolved in H2 O) were added. The controls were a) cells to which test compound was not added and b) heparin (100 μg/ml). Subsequently, the cells were incubated for 48 hours and thereafter the cell count was determined once more.
The inhibition i of the cell growth, i.e. the percent reduction in the growth rate of the cells compared to the control, was calculated from these values: [formula] the growth rate μ being calculated as [formula] in which Z is the number of cells.
Finally, ri --the relative inhibitory activity--which expresses the activity of a substance (at 100 μg/ml) in comparison to the activity of heparin in the same concentration in the same experiment, was calculated: [formula]

thrombin = target: T1, thrombin (Homo sapiens, UniProt P00734); assay: biochemical; format: biochemical; details: read-out: Anticoagulative Activity IC50 Thrombin
T1 construct: purchased Roche, Basle (Thrombin Reagent)
Method: (§1) The blood coagulation-inhibiting activity was determined as follows:
Inhibition of Thrombin or Factor Xa in the Chromogenic Substrate Assay (Teien. et al., Thrombosis Research 10, 399-410 (1977)): The determination was effected in a Cobas-Bio centrifugal automatic spectrophotometer. The buffer solution used consisted of 50 mM Tris buffer, 180 mM NaCl, 7.5 mM EDTA Na2, 1% PEG 6000 and 0.02% Tween 80, pH 8.4. The test solution consisted of 50 μl of buffer, 30 μl of antithrombin III (1 U/ml, Kabi Diagnostica) and 20 μl of plasma which contained various concentrations of test compounds. 30 μl of sample solution and 20 μl of water with 180 μl of thrombin (1 U/ml, Thrombin Reagent Roche Basle) were added to the test cuvette in the automatic analyzer. After incubation at 37° C. for 240 seconds, 60 μl of S-2238 (H-D-Phe-Pip-Arg-NH.pNA, Kabi Diagnostica, Mondal, Sweden, 0.75 mM in water) and 20 μl of water were added. The liberation of pNA (p-nitroaniline) was followed during 60 seconds at 405 nm in 10 second intervals in comparison to water as the blank.

Factor Xa = target: T2, Factor Xa (Bos taurus, UniProt P00743); assay: Inhibition of Factor Xa in the chromogenic substrate assay (blood coagulation inhibition); format: biochemical; details: chromogenic substrate S-2222, antithrombin III, plasma; read-out: Anticoagulative Activity IC50 Factor Xa
T2 sequence (P00743 41-180 limits assumed): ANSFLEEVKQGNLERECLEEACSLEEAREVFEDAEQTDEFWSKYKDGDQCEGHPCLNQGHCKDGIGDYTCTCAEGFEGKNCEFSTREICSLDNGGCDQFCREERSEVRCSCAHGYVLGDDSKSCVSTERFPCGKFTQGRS
Method: as §1
Inhibition of Thrombin or Factor Xa in the Chromogenic Substrate Assay (Teien. et al., Thrombosis Research 10, 399-410 (1977)): The determination was effected in a Cobas-Bio centrifugal automatic spectrophotometer. The buffer solution used consisted of 50 mM Tris buffer, 180 mM NaCl, 7.5 mM EDTA Na2, 1% PEG 6000 and 0.02% Tween 80, pH 8.4. The test solution consisted of 50 μl of buffer, 30 μl of antithrombin III (1 U/ml, Kabi Diagnostica) and 20 μl of plasma which contained various concentrations of test compounds.
The inhibition of Factor Xa was measured in the same manner using a solution of Factor Xa (2.8 nkat/ml) and 2 mM S-2222 (Bz-CO-Ile-Glu-Arg-NH.pNA, Kabi Diagnostica) in water in place of thrombin or S-2238.

[1] = chromogenic substrate S-2238, antithrombin III, plasma, pH 8.4, 37° C.

| SMILES | IC50 (thrombin; pH 8.4) [µM] | IC50 (Factor Xa) [µM] | IC50 (thrombin; [1]) [µM] | Antiproliferative Activity ri (relative inhibitory activity compared with heparin) (rat smooth muscle cells) |
| --- | --- | --- | --- | --- |
| O=C(NC[C@H](OS(=O)(=O)O)[C@@H](OS(=O)(=O)O)[C@H](OS(=O)(=O)O)[C@@H](COS(=O)(=O)O)OS(=O)(=O)O)c1ccc2cc(C(=O)NC[C@H](OS(=O)(=O)O)[C@@H](OS(=O)(=O)O)[C@H](OS(=O)(=O)O)[C@@H](COS(=O)(=O)O)OS(=O)(=O)O)ccc2c1 [Example 1, naphthalene-2,6-dicarboxylic acid bis-(2,3,4,5,6-penta-O-sulfo-D-glucit-1-ylamide) decasodium salt] | > 745 | > 745 | – | 0.6 |
| O=C(NC[C@H](OS(=O)(=O)O)[C@@H](OS(=O)(=O)O)[C@H](OS(=O)(=O)O)[C@@H](COS(=O)(=O)O)OS(=O)(=O)O)c1ccc(/C=C\c2ccc(C(=O)NC[C@H](OS(=O)(=O)O)[C@@H](OS(=O)(=O)O)[C@H](OS(=O)(=O)O)[C@@H](COS(=O)(=O)O)OS(=O)(=O)O)cc2)cc1 [Example 3, (Z)-stilbene-4,4'-dicarboxylic acid bis-(2,3,4,5,6-penta-O-sulfo-D-glucit-1-ylamide) decasodium salt] | – | > 717 | > 717 | 1.5 |
| O=C(NC[C@H](OS(=O)(=O)O)[C@@H](OS(=O)(=O)O)[C@H](OS(=O)(=O)O)[C@@H](COS(=O)(=O)O)OS(=O)(=O)O)c1ccc(S(=O)(=O)c2ccc(C(=O)NC[C@H](OS(=O)(=O)O)[C@@H](OS(=O)(=O)O)[C@H](OS(=O)(=O)O)[C@@H](COS(=O)(=O)O)OS(=O)(=O)O)cc2)cc1 [Example 4, 4,4'-sulfonyl-dibenzoic acid bis-(2,3,4,5,6-penta-O-sulfo-D-glucit-1-ylamide) decasodium salt] | – | > 698 | > 698 | 0.3 |
| CC(/C=C/C=C(\C)C(=O)NC[C@H](OS(=O)(=O)O)[C@@H](OS(=O)(=O)O)[C@H](OS(=O)(=O)O)[C@@H](COS(=O)(=O)O)OS(=O)(=O)O)=C\C=C\C=C(C)\C=C\C=C(/C)C(=O)NC[C@H](OS(=O)(=O)O)[C@@H](OS(=O)(=O)O)[C@H](OS(=O)(=O)O)[C@@H](COS(=O)(=O)O)OS(=O)(=O)O [Example 6, (2E,4E,6E,8E,10E,12E,14E)-2,6,11,15-tetramethyl-hexadeca-2,4,6,8,10,12,14-heptaenedicarboxylic acid bis-(2,3,4,5,6-penta-O-sulfo-D-glucit-1-ylamide) decasodium salt] | – | > 687 | > 687 | 1.5 |
| O=C(NC[C@H](OS(=O)(=O)O)[C@@H](OS(=O)(=O)O)[C@H](OS(=O)(=O)O)[C@@H](COS(=O)(=O)O)OS(=O)(=O)O)c1ccc(CCc2ccc(C(=O)NC[C@H](OS(=O)(=O)O)[C@@H](OS(=O)(=O)O)[C@H](OS(=O)(=O)O)[C@@H](COS(=O)(=O)O)OS(=O)(=O)O)cc2)cc1 [Example 10, 4,4'-ethylene-dibenzoic acid bis-(2,3,4,5,6-penta-O-sulfo-D-glucit-1-ylamide) decasodium salt] | – | > 716 | > 716 | 1.5 |
| O=C(NC[C@H](OS(=O)(=O)O)[C@@H](OS(=O)(=O)O)[C@H](OS(=O)(=O)O)[C@@H](COS(=O)(=O)O)OS(=O)(=O)O)c1cccc(C(=O)NC[C@H](OS(=O)(=O)O)[C@@H](OS(=O)(=O)O)[C@H](OS(=O)(=O)O)[C@@H](COS(=O)(=O)O)OS(=O)(=O)O)c1 [Example 14, N,N'-bis-(2,3,4,5,6-penta-O-sulfo-D-glucit-1-yl)-isophthalamide decasodium salt] | – | > 773 | > 773 | 0.6 |
| O=C(NC[C@H](OS(=O)(=O)O)[C@@H](OS(=O)(=O)O)[C@H](OS(=O)(=O)O)[C@@H](COS(=O)(=O)O)OS(=O)(=O)O)Nc1ccc(NC(=O)c2ccc(C(=O)Nc3ccc(NC(=O)NC[C@H](OS(=O)(=O)O)[C@@H](OS(=O)(=O)O)[C@H](OS(=O)(=O)O)[C@@H](COS(=O)(=O)O)OS(=O)(=O)O)cc3)cc2)cc1 [Example 33, N,N'-bis-[4-[3-(2,3,4,5,6-penta-O-sulfo-D-glucit-1-yl)-ureido]-phenyl]-terephthalamide decasodium salt] | > 640 | > 640 | – | 0.8 |
| O=C(/C=C/C(=O)Nc1ccc(NC(=O)NC[C@H](OS(=O)(=O)O)[C@@H](OS(=O)(=O)O)[C@H](OS(=O)(=O)O)[C@@H](COS(=O)(=O)O)OS(=O)(=O)O)cc1)Nc1ccc(NC(=O)NC[C@H](OS(=O)(=O)O)[C@@H](OS(=O)(=O)O)[C@H](OS(=O)(=O)O)[C@@H](COS(=O)(=O)O)OS(=O)(=O)O)cc1 [Example 34, N,N'-bis-[4-[3-(2,3,4,5,6-penta-O-sulfo-D-glucit-1-yl)-ureido]-phenyl]-fumaramide decasodium salt] | > 662 | > 662 | – | 0.4 |

Continued, in another order:

| IC50 (thrombin; pH 8.4) [µM] | IC50 (Factor Xa) [µM] | IC50 (thrombin; [1]) [µM] | SMILES | Antiproliferative Activity ri (relative inhibitory activity compared with heparin) (rat smooth muscle cells) |
| --- | --- | --- | --- | --- |
| – | > 707 | > 707 | O=S(=O)(O)OC[C@@H](OS(=O)(=O)O)[C@@H](OS(=O)(=O)O)[C@H](OS(=O)(=O)O)[C@H](CNS(=O)(=O)c1cccc2c(S(=O)(=O)NC[C@H](OS(=O)(=O)O)[C@@H](OS(=O)(=O)O)[C@H](OS(=O)(=O)O)[C@@H](COS(=O)(=O)O)OS(=O)(=O)O)cccc12)OS(=O)(=O)O [Example 11, naphthalene-1,5-disulfonic acid bis-(2,3,4,5,6-penta-O-sulfo-D-glucit-1-ylamide) decasodium salt] | 1.0 |
| – | > 795 | > 795 | O=C(Nc1ccc(OC[C@@H](OS(=O)(=O)O)[C@H](OS(=O)(=O)O)[C@@H](COS(=O)(=O)O)OS(=O)(=O)O)cc1)c1cccc(C(=O)Nc2ccc(OC[C@@H](OS(=O)(=O)O)[C@H](OS(=O)(=O)O)[C@@H](COS(=O)(=O)O)OS(=O)(=O)O)cc2)c1 [Example 12, N,N'-bis-[4-(2,3,4,5-tetra-O-sulfo-D-arabinit-1-yloxy)-phenyl]-isophthalamide octasodium salt] | 0.9 |
| – | > 723 | > 723 | O=C(NC[C@H](OS(=O)(=O)O)[C@@H](OS(=O)(=O)O)[C@H](OS(=O)(=O)O)[C@@H](COS(=O)(=O)O)OS(=O)(=O)O)c1ccc(Cc2ccc(C(=O)NC[C@H](OS(=O)(=O)O)[C@@H](OS(=O)(=O)O)[C@H](OS(=O)(=O)O)[C@@H](COS(=O)(=O)O)OS(=O)(=O)O)cc2)cc1 [Example 16, 4,4'-methylene-dibenzoic acid bis-(2,3,4,5,6-penta-O-sulfo-D-glucit-1-ylamide) decasodium salt] | 0.7 |
| – | > 748 | > 748 | Cc1c(NC(=O)NC[C@H](OS(=O)(=O)O)[C@@H](OS(=O)(=O)O)[C@H](OS(=O)(=O)O)[C@@H](COS(=O)(=O)O)OS(=O)(=O)O)cccc1NC(=O)NC[C@H](OS(=O)(=O)O)[C@@H](OS(=O)(=O)O)[C@H](OS(=O)(=O)O)[C@@H](COS(=O)(=O)O)OS(=O)(=O)O [Example 26, 3,3'-bis-(2,3,4,5,6-penta-O-sulfo-D-glucit-1-yl)-1,1'-(toluene-2,6-diyl)-diurea decasodium salt] | 1.5 |
| – | > 703 | > 703 | CN(C[C@H](OS(=O)(=O)O)[C@@H](OS(=O)(=O)O)[C@H](OS(=O)(=O)O)[C@@H](COS(=O)(=O)O)OS(=O)(=O)O)C(=O)c1ccc2c(c1)C(=O)c1cc(C(=O)N(C)C[C@H](OS(=O)(=O)O)[C@@H](OS(=O)(=O)O)[C@H](OS(=O)(=O)O)[C@@H](COS(=O)(=O)O)OS(=O)(=O)O)ccc1-2 [Example 37, 9-oxo-9H-fluorene-2,7-dicarboxylic acid bis-[methyl-(2,3,4,5,6-penta-O-sulfo-D-glucit-1yl)-amide] decasodium salt] | 0.7 |
| – | > 620 | > 620 | O=C(/C=C\C(=O)Nc1cc(COc2ccc(-c3ccccc3)cc2)cc(NC(=O)/C=C\C(=O)NC[C@H](OS(=O)(=O)O)[C@@H](OS(=O)(=O)O)[C@H](OS(=O)(=O)O)[C@@H](COS(=O)(=O)O)OS(=O)(=O)O)c1)NC[C@H](OS(=O)(=O)O)[C@@H](OS(=O)(=O)O)[C@H](OS(=O)(=O)O)[C@@H](COS(=O)(=O)O)OS(=O)(=O)O [Example 58, (Z)-butenedioic acid (Z)-[3-biphenyl-4-yloxymethyl-5-[3-(2,3,4,5,6-penta-O-sulfo-D-glucit-1-ylcarbamoyl)-acryloylamino]-phenylamide]-(2,3,4,5,6-penta-O-sulfo-D-glucit-1-yl)-amide decasodium salt] | 2.2 |
| – | > 728 | > 728 | O=C(Nc1ccc(OC[C@@H](OS(=O)(=O)O)[C@H](OS(=O)(=O)O)[C@H](OS(=O)(=O)O)[C@H](COS(=O)(=O)O)OS(=O)(=O)O)cc1)Nc1ccc(OC[C@@H](OS(=O)(=O)O)[C@H](OS(=O)(=O)O)[C@H](OS(=O)(=O)O)[C@H](COS(=O)(=O)O)OS(=O)(=O)O)cc1 [Example 65, 1,3-bis-[4-(2,3,4,5,6-penta-O-sulfo-D-galactit-6-yloxy)-phenyl]-urea decasodium salt] | 0.8 |
